According to ChEMBL document CHEMBL4346671, “Synthesis and bioevaluation of diarylpyrazoles as antiproliferative agents” (Eur J Med Chem, 2019):
Active and inactive are the calls of the source. The rule behind the calls is not given here.

How the values were obtained:
SGC-7901 [1] = test: Antiproliferative activity against human SGC7901 cells measured after 72 hrs by MTT assay; assay type: functional, cell-based; settings: SGC-7901, 72 h
KB = test: Antiproliferative activity against human KB cells measured after 72 hrs by MTT assay; assay type: functional, cell-based
HT-1080 = test: Antiproliferative activity against human HT1080 cells measured after 72 hrs by MTT assay; assay type: functional, cell-based; settings: HT-1080, 72 h
Tubulin (Homo sapiens) [2] = target: T1, Tubulin (Homo sapiens) (UniProt P68371+Q9H4B7+P0DPH7+P68366+Q13509+Q71U36+P04350+Q3ZCM7+P07437+P68363+Q9BQE3+Q6PEY2+Q13885+Q9BVA1+Q9BUF5); test: Induction of microtubule depolymerization in human SGC7901 cells assessed as change in microtubule morphology at 2 fold antiproliferative IC50 measured after 24 hrs by DAPI staining based fluorescence microscopy; assay type: cell-based
SGC-7901 [3] = test: Cell cycle arrest in human SGC7901 cells assessed as increase in cell population at G2/M phase at 2 fold IC50 concentration measured after 12 hrs by propidium iodide staining based FACScan flow cytometry; assay type: functional
SGC-7901 [4] = test: Cell cycle arrest in human SGC7901 cells assessed as increase in cell population at G2/M phase at 2 fold IC50 concentration measured after 24 hrs by propidium iodide staining based FACScan flow cytometry; assay type: functional
Tubulin (Sus scrofa) [5] = target: T2, Tubulin (Sus scrofa) (UniProt P02554+P02550); settings: 4 uM
T2 sequence (P02550 whole entry, looked up): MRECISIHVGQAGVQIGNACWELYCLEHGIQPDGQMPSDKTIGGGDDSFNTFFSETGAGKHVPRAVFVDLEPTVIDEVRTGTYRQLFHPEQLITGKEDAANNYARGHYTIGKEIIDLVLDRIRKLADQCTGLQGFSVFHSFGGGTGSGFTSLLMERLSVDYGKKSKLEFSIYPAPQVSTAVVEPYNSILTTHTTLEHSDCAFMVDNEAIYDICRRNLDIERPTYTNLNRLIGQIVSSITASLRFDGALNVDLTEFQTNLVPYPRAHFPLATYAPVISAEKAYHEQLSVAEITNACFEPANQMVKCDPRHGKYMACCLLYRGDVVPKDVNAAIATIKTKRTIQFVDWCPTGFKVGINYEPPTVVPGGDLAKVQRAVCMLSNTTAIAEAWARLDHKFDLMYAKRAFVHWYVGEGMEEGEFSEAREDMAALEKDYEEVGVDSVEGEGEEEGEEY
T2 sequence (P02554 whole entry, looked up): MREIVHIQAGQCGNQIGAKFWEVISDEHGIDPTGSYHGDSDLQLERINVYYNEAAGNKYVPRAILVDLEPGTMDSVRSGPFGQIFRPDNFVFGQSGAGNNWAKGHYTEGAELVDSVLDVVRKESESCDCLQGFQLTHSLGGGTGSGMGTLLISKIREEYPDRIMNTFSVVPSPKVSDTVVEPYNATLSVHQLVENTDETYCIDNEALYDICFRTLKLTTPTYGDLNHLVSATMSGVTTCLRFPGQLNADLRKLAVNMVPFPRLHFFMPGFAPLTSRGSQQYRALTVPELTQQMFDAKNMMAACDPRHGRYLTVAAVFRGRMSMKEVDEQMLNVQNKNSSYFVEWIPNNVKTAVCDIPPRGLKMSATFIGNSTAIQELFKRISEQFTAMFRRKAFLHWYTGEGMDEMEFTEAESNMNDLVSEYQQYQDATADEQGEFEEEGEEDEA
Description: Inhibition of porcine brain tubulin polymerization at 4 uM preincubated before GTP addition and measured at 1 min intervals for 90 mins by fluorescence based assay

Tubulin (Sus scrofa) [6] = target: T2, Tubulin (Sus scrofa); test: Inhibition of porcine brain tubulin polymerization at 3 to 20 uM preincubated before GTP addition and measured at 1 min intervals for 90 mins by fluorescence based assay
Tubulin = Tubulin (Sus scrofa, UniProt P02554+P02550); test: Inhibition of porcine brain tubulin polymerization preincubated before GTP addition and measured at 1 min intervals for 90 mins by fluorescence based assay
SGC-7901 [7] = test: Induction of polyploidy in human SGC7901 cells at 2 fold IC50 concentration measured after 72 hrs by propidium iodide staining based FACScan flow cytometry; assay type: functional, cell-based
SGC-7901 [8] = test: Cell cycle arrest in human SGC7901 cells assessed as accumulation of cell population in G2/M phase at 2 fold IC50 concentration for 12 to 72 hrs by propidium iodide staining based FACScan flow cytometry; assay type: functional; settings: TDE = time-dependent effect
SGC-7901 [9] = test: Cell cycle arrest in human SGC7901 cells assessed as increase in cell population at sub-G1 phase at 2 fold IC50 concentration measured after 36 hrs by propidium iodide staining based FACScan flow cytometry; assay type: functional
Tubulin (Homo sapiens) [10] = target: T1, Tubulin (Homo sapiens); test: Inhibition of microtubule formation in human SGC7901 cells assessed as mitotic catastrophe at 2 fold IC50 concentration measured after 24 hrs by DAPI staining based fluorescence microscopy; assay type: cell-based
Tubulin (Homo sapiens) [11] = target: T1, Tubulin (Homo sapiens); test: Inhibition of microtubule formation in human SGC7901 cells at 2 fold IC50 concentration measured after 24 hrs by DAPI staining based fluorescence microscopy; assay type: cell-based
SGC-7901 [12] = test: Cell cycle arrest in human SGC7901 cells assessed as decrease in cell population at G2/M phase at 2 fold IC50 concentration measured after 36 hrs by propidium iodide staining based FACScan flow cytometry; assay type: functional
SGC-7901 [13] = test: Cell cycle arrest in human SGC7901 cells assessed as decrease in cell population at G2/M phase at 2 fold IC50 concentration measured after 48 hrs by propidium iodide staining based FACScan flow cytometry; assay type: functional
SGC-7901 [14] = test: Cell cycle arrest in human SGC7901 cells assessed as decrease in cell population at G2/M phase at 2 fold IC50 concentration measured after 72 hrs by propidium iodide staining based FACScan flow cytometry; assay type: functional
SGC-7901 [15] = test: Cell cycle arrest in human SGC7901 cells assessed as increase in cell population at sub-G1 phase at 2 fold IC50 concentration measured after 48 hrs by propidium iodide staining based FACScan flow cytometry; assay type: functional
SGC-7901 [16] = test: Cell cycle arrest in human SGC7901 cells assessed as increase in cell population at sub-G1 phase at 2 fold IC50 concentration measured after 72 hrs by propidium iodide staining based FACScan flow cytometry; assay type: functional

IC50 (SGC-7901 [1]) [nM] | IC50 (KB) [nM] | IC50 (HT-1080) [nM] | Structure (SMILES) | other results
15 | 36 | 19 | CCOc1ccc(-c2cnn(C(C)=O)c2-c2cc(OC)c(OC)c(OC)c2)cc1 | 
13700 | 10800 | 19500 | COc1cc(-c2c(-c3ccc(OC(F)(F)F)cc3)cnn2C(C)=O)cc(OC)c1OC | 
13000 | 6720 | 8130 | COc1cc(-c2n[nH]cc2-c2ccc(OCc3ccccc3)cc2)cc(OC)c1OC | 
32 | 60 | 23 | COc1ccc(-c2[nH]ncc2-c2cc(OC)c(OC)c(OC)c2)cc1O | 
14400 | 129000 | 44900 | COc1cc(-c2c(-c3ccc(OCc4ccccc4)cc3)cnn2C(C)=O)cc(OC)c1OC | 
31 | 23 | 14 | COc1ccc(-c2c(-c3cc(OC)c(OC)c(OC)c3)cnn2C(C)=O)cc1 | 
200 | 110 | 21 | CCOc1ccc(-c2c(-c3cc(OC)c(OC)c(OC)c3)cnn2C(C)=O)cc1 | 
30100 | 84200 | 18400 | COc1ccc(-c2c(-c3cc(OC)c(OC)c(OC)c3)cnn2C(C)=O)cc1OCc1ccccc1 | 
2200 | 1500 | 4070 | COc1cccc(-c2c[nH]nc2-c2cc(OC)c(OC)c(OC)c2)c1 | 
10400 | 6720 | 12200 | COc1ccc(-c2cnn(C(C)=O)c2-c2cc(OC)c(OC)c(OC)c2)cc1OCc1ccccc1 | 
30 | 35 | 17 | CCOc1ccc(-c2c[nH]nc2-c2cc(OC)c(OC)c(OC)c2)cc1 | 
180 | 72 | 80 | COc1ccc(-c2c[nH]nc2-c2cc(OC)c(OC)c(OC)c2)cc1 | 
44 | 25 | 26 | COc1ccc(-c2n[nH]cc2-c2cc(OC)c(OC)c(OC)c2)cc1 | 
1340 | 2870 | 1340 | COc1cc(-c2n[nH]cc2-c2ccc(OC(F)(F)F)cc2)cc(OC)c1OC | 
15 | 33 | 17 | COc1ccc(-c2cnn(C(C)=O)c2-c2cc(OC)c(OC)c(OC)c2)cc1O | 
3810 | 620 | 1920 | COc1ccc(-c2n[nH]cc2-c2cc(OC)c(OC)c(OC)c2)cc1OC | 
36500 | 5440 | 4840 | COc1ccc(-c2c[nH]nc2-c2cc(OC)c(OC)c(OC)c2)cc1OC | 
31 | 23 | 30 | COc1ccc(-c2cn[nH]c2-c2cc(OC)c(OC)c(OC)c2)cc1O | 
4870 | 5080 | 2520 | COc1cc(-c2c(-c3ccc(O)cc3)cnn2C(C)=O)cc(OC)c1OC | 
2030 | 700 | 1210 | COc1ccc(-c2c(-c3cc(OC)c(OC)c(OC)c3)cnn2C(C)=O)cc1OC | 
28200 | 86200 | 20800 | COc1ccc(-c2n[nH]cc2-c2cc(OC)c(OC)c(OC)c2)cc1OCc1ccccc1 | 
15400 | 8470 | 10000 | COc1cc(-c2n[nH]cc2-c2ccc(O)cc2)cc(OC)c1OC | 
14000 | 32800 | 19300 | COc1cc(-c2n[nH]cc2-c2ccc(F)c(F)c2)cc(OC)c1OC | 
4820 | 4580 | 1330 | COc1ccc(-c2cnn(C(C)=O)c2-c2cc(OC)c(OC)c(OC)c2)cc1OC | 
9260 | 7100 | 10000 | COc1ccc(-c2c[nH]nc2-c2cc(OC)c(OC)c(OC)c2)cc1OCc1ccccc1 | 
9.3 | 22 | 12 | COc1ccc(-c2c(-c3cc(OC)c(OC)c(OC)c3)cnn2C(C)=O)cc1O | inhibition (Tubulin (Sus scrofa) [6]): Dose-dependent effect; IC50 (Tubulin): 7730 nM; Activity (SGC-7901 [7]): Active; Activity (SGC-7901 [8]): Tde; Activity (SGC-7901 [9]): Active; Activity (Tubulin (Homo sapiens) [2]): Active; inhibition (Tubulin (Homo sapiens) [10]): Active; inhibition (Tubulin (Homo sapiens) [11]): Active; Activity (SGC-7901 [3]): Active; Activity (SGC-7901 [4]): Active; Activity (SGC-7901 [12]): Active; Activity (SGC-7901 [13]): Active; Activity (SGC-7901 [14]): Active; Activity (SGC-7901 [15]): Active; Activity (SGC-7901 [16]): Active
15 | 65 | 21 | CCOc1ccc(-c2n[nH]cc2-c2cc(OC)c(OC)c(OC)c2)cc1 | 
13 | 28 | 96 | COc1ccc(-c2cnn(C(C)=O)c2-c2cc(OC)c(OC)c(OC)c2)cc1 | 

Structure (SMILES) | IC50 (SGC-7901 [1]) [nM] | IC50 (KB) [nM] | IC50 (HT-1080) [nM] | other results
COc1ccc(/C=C\c2cc(OC)c(OC)c(OC)c2)cc1O [COMBRETASTATIN A4] | 130 | 250 | 51 | Activity (Tubulin (Homo sapiens) [2]): Active; Activity (SGC-7901 [3]): Active; Activity (SGC-7901 [4]): Active; inhibition (Tubulin (Sus scrofa) [5]): Active
